Source: patent US9464326B2, “Total and phosphorylated IL-1 receptor-associated kinase-1 and IL-1 receptor-associated kinase-4 as a biomarker for cancer progression and chemotherapy resistance” (University of Maryland, Baltimore, priority 2012, dated 2016)

How the values were obtained:
patient T-ALL cells = experiment: Patient T-ALL numbers in NSG mice (flow cytometry); type: in vivo; conditions: patient T-ALL cells in irradiated NSG mice; 10 mg/Kg i.p. days 7, 10, 13; FIG. 12
Description: FIG. 12. […] NSG mice were irradiated (400 cGy) one day prior to intravenous injection of patient T-ALL cells (6×10^6 cells/mouse). Once 100 T-ALL cells/ul of blood were detected, mice were received one intraperitoneal injection with IRAK-1,-4 inhibitor (10 mg/Kg) or an equal volume of control vehicle (DMSO) on days 7, 10 and 13. Numbers of T-ALL cells (CD7^+) in peripheral blood were determined on day 27 and D21 by flow cytometry as described in FIG. 1. All the data shown are representative of two independent experiments (±SD) with three mice per group. Representative dot plots from bone marrow are shown in A (left panel). ANOVA; *P<0.05.
CCRF-CEM (2×10^6) cells were injected intravenously (i.v.) into female NOD.Cg-Prkdc^scid Il2rg^tm1WJl/SzJ IL2RG (NSG) mice (Jackson Laboratories, Bar Harbor, Me.). […] In some experiments mice were injected i.v. with TLR1-TLR2 ligand (2.5 μg) two days after injecting cells. In other experiments mice were injected intraperitoneally (i.p.) with IRAK-1,-4 inhibitor (10 mg/kg) 3, 6, and 9 days (CCRF-CEM cells) or 7, 10, and 13 days (patient T-ALL cells) after detecting CD7^+ T-ALL cells in circulation. The numbers of T-ALL cells in the bone marrow, spleen, liver, and in circulation were determined by staining cells with anti-human CD7 and/or CD5. […]

CCRF-CEM cells = experiment: Cell number and apoptosis assays; type: cell-based, human; conditions: 5 uM, 24-96 hours
Description: TLR ligands were diluted 2-fold. Cell lines (25-40×10^3/well) were cultured for 54 hours, whereas fresh patient-derived T-ALL cells (200×10^3/well) were cultured for 30 hours prior to adding [^3H]-thymidine for 18 hours. After this time point, cells were harvested with a Packard Filter-Mate-96 cell harvester (Perkin Elmer, Waltham, Mass., USA) and counted on Packard Top Count-NXT (Perkin Elmer, Waltham, Mass., USA). Results were expressed as average counts per minute (cpm). In some experiments CCRF-CEM cells were pre-treated with TLR1-TLR2 ligand (Pam3CysK4; 2.5 ug/ml) for 48 hrs, washed, and then cultured in the presence of varying concentrations of FBS. Forty-eight hours later, proliferation (±SD) was determined by ^3H-thymidine incorporation. Alternatively, apoptosis was measured by flow cytometry after staining cells with Annexin-V (BD Pharmingen, San Diego, Calif., USA) and propidium iodide (Sigma). Cell number was counted under microscopy by staining cells with trypan blue.
CCRF-CEM cells were treated with IRAK-1,-4 inhibitor for 24, 48, 72, and 96 hours.
The T-ALL cell line CCRF-CEM was cultured in the presence of 0, 1.2, 5, 10, and 20 μM IRAK-1,-4 inhibitor. (FIG. 23). To each concentration of IRAK-1,-4 inhibitor titrating doses of ABT-737 (1000→15 nM) vincristine, VS (10→0.1 nM), and paclitaxol, PAC (100→1.5 nM). […] Apoptosis was measure 48 hours later by staining cells with 7AAD and analyzed by flow cytometry.

Hut 102 = experiment: Proliferation (3H-thymidine) of Hut 102; type: cell-based, human; conditions: 3H-thymidine uptake, 72 h
Excerpt: CCRF-CEM, CEM/C1, CEM/C2, CEM-C7, Jurkat, Loucy, Molt-4, HSB-2, SUP-T1, Hut 78, HH, Hut 102, MO, and H9 T-leukemia and T-lymphoma cell lines were purchased from the American Type Culture Collection (Manassas, Va., USA). All of the cell lines were initially expanded and cryopreserved within one month of receipt. Cells were typically used for 6 months at which time a fresh vial of cryopreserved cells was used. Total T cells from healthy donors were isolated via negative selection followed by positive selection using a CD3+ selection kit (Invitrogen, Carlsbad, Calif.). T cells were isolated from patients with T-ALL bone marrow or peripheral blood samples containing more than 70% leukemia cells using a CD2+ isolation kit (STEMCELL Technologies, Vancouver, Canada). All tissues were collected under institutional IRB-approved protocols and all participants gave written informed assent/consent. For in vitro experiments, T-ALL cells were cultured in AIM-V medium supplemented with 20% human AB serum in the presence of recombinant human stem cell factor (50 ng/mL; Amgen, Thousand Oaks, Calif.), insulin (20 nM; Sigma-Aldrich, St Louis, Mo., USA) and IL-7 (50 ng/mL; R&D Systems, Minneapolis, Minn., USA). […]
Cells were cultured in a 96-well plate (Corning Costar, Corning, N.Y., USA) with various concentrations of TLR ligands 1-9, starting at 10 μg/ml, in a final volume of 200 ul. […] After this time point, cells were harvested with a Packard Filter-Mate-96 cell harvester (Perkin Elmer, Waltham, Mass., USA) and counted on Packard Top Count-NXT (Perkin Elmer, Waltham, Mass., USA). Results were expressed as average counts per minute (cpm). […] Forty-eight hours later, proliferation (±SD) was determined by ^3H-thymidine incorporation. Alternatively, apoptosis was measured by flow cytometry after staining cells with Annexin-V (BD Pharmingen, San Diego, Calif., USA) and propidium iodide (Sigma). Cell number was counted under microscopy by staining cells with trypan blue. […]

Q: How did the “T-ALL numbers (CD7+) in peripheral blood” value (patient T-ALL cells) turn out when `O=C(Nc1nc2ccccc2n1CCN1CCOCC1)c1cccc([N+](=O)[O-])c1` [IRAK-1,-4 inhibitor] was run?
A: reduces T-ALL numbers

Q: What about the “number of viable cells” value (CCRF-CEM cells; FIG. 14B) of the same molecule?
A: maintained a relatively constant number of viable cells

Q: What about the “apoptosis (sub-G1 phase, Annexin V)” value (CCRF-CEM cells; FIG. 14D) of the same molecule?
A: did not induce apoptosis

Q: “tripalmitoyl-S-(bis(palmitoyloxy)propyl)-Cys-Ser-(Lys)3-Lys [Pam3Cysk4]” was tested. Which “Proliferative effects of TLR ligands” value (Hut 102) did it give?
A: ∘
